molecular target: T1, human PAH with the R408W mutation (Homo sapiens, UniProt P00439, R408W); test: Cell Based Phenylalanine Flux Assay; settings: A375 cells expressing R408W PAH; 24 hrs with compound, then 20 µM sepiapterin and 800 µM 13C9,15N-Phenylalanine for 4 hours; 13C-Tyrosine by LC-MS; average where tested multiple times; read-out: AC50;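 also: after compound treatment, cells received sepiapterin plus isotope-labelled Phenylalanine for 4 hours, then labelled Tyrosine in the medium was quantified, 10-point 2-fold dilution series run in duplicate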
T1 construct: expressed in transfected cells
T1 sequence (P00439 1-452 R408W): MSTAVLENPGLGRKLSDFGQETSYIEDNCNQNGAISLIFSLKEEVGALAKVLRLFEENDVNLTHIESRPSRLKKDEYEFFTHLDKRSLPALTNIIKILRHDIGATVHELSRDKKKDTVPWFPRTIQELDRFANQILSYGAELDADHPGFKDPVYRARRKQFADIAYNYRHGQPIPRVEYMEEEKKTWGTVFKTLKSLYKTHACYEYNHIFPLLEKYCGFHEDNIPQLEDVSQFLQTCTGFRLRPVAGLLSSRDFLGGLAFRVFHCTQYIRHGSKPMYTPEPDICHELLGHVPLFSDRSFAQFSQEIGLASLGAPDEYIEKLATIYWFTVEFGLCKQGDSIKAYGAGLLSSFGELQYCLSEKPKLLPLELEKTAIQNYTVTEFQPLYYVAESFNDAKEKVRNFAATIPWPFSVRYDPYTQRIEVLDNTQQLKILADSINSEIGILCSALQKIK

First: O=C(c1nnc(-c2ccccn2)o1)N1CCCc2[nH]cnc2C1c1cc2ccccn2n1 (stereo not drawn)
Second: Cc1c(C2c3nc[nH]c3CCN2C(=O)c2nnc(-c3ccccn3)o2)nn2ccccc12 (stereo not drawn)
The AC50 of the first is higher: over 5000 nM for the first, 1000 to 5000 nM for the second.

Compared with `O=C(c1cnco1)N1CCc2[nH]cnc2C1c1cc2cccc(C(F)(F)F)n2n1` (stereo not drawn), `Cc1nc(C(C)O)oc1C(=O)N1CCc2[nH]cnc2C1c1cc2cccc(C(F)(F)F)n2n1` (stereo not drawn) is lower in AC50: over 5000 nM for the first, 1000 to 5000 nM for the second.

`Cc1cccc2cc(C3c4nc[nH]c4CCN3c3nnc(-c4cnccn4)o3)nn12` (stereo not drawn) and `FC(F)(F)c1cccn2nc(C3c4nc[nH]c4CCN3c3nnc(-c4cccnn4)o3)cc12` (stereo not drawn) fall in the same range of AC50: 1000 to 5000 nM for the first, 1000 to 5000 nM for the second.

`Cc1cccc2cc(C3c4nc[nH]c4CCN3C(=O)c3nnc(C4CC(F)(F)C4)o3)nn12` (stereo not drawn) and `O=C(c1nnc(N2CC(F)C2)o1)N1CCc2[nH]cnc2C1c1cc2ccccn2n1` (stereo not drawn) fall in the same range of AC50: 1000 to 5000 nM for the first, 1000 to 5000 nM for the second.

Compared with `CN(C)C(=O)c1nnc(N2CCc3[nH]cnc3C2c2cc3ccccn3n2)o1` (stereo not drawn), `Nc1ccc(N2CCc3[nH]cnc3C2c2cc3ccccn3n2)nc1` (stereo not drawn) is higher in AC50: 1000 to 5000 nM for the first, over 5000 nM for the second.

First: CN(C)CCc1ccc2c(C(=O)N3CCc4[nH]cnc4[C@H]3c3cc4ccccn4n3)cnn2c1 (single isomer, unassigned)
Second: Cn1cc(-c2ncc(C(=O)N3CCc4[nH]cnc4C3c3cc4ccccn4n3)o2)cn1 (stereo not drawn)
The AC50 of the first is higher: over 5000 nM for the first, 1000 to 5000 nM for the second.

`Cc1cccn2nc(C3c4nc[nH]c4CCN3C(=O)C3CCC3)cc12` (stereo not drawn) and `O=C(c1cn[nH]c1)N1CCc2[nH]cnc2C1c1cc2ccccn2n1` (stereo not drawn) cannot be ordered by AC50: over 5000 nM for the first, over 5000 nM for the second.

Work on `O=C(c1ccnn1-c1ccccn1)N1CCc2[nH]cnc2C1c1cc2ccccn2n1` (stereo not drawn) yielded an AC50 of 1000 to 5000 nM.

same assay, conditions: A375 cells expressing human PAH R408W; 24 hrs compound incubation; 13C-Tyrosine by LC-MS; average where tested multiple times; read-out: AC50

Compared with `O=C(c1nc2ccccc2o1)N1CCc2[nH]cnc2[C@H]1c1cc2c(C(F)(F)F)cccn2n1` [Example 2054, (S)-benzo[d]oxazol-2-yl(4-(4-(trifluoromethyl)pyrazolo[1,5-a]pyridin-2-yl)-1,4,6,7-tetrahydro-5H-imidazo[4,5-c]pyridin-5-yl)methanone], `O=C(c1cnc(-c2ccccn2)o1)N1CCc2[nH]cnc2[C@@H]1c1cc2c(F)cccn2n1` [Example 2033, (R)-(4-(4-fluoropyrazolo[1,5-a]pyridin-2-yl)-1,4,6,7-tetrahydro-5H-imidazo[4,5-c]pyridin-5-yl)(2-(pyridin-2-yl)oxazol-5-yl)methanone] is higher in AC50: 500 to 1000 nM for the first, over 5000 nM for the second.

First: CC(C)c1cccn2nc([C@H]3c4nc[nH]c4CCN3C(=O)c3nnc(-c4cnn(C(F)F)c4)o3)cc12 [Example 1937, (R)-(5-(1-(difluoromethyl)-1H-pyrazol-4-yl)-1,3,4-oxadiazol-2-yl)(4-(4-isopropylpyrazolo[1,5-a]pyridin-2-yl)-1,4,6,7-tetrahydro-5H-imidazo[4,5-c]pyridin-5-yl)methanone]
Second: FC(F)(F)c1nnc(N2CCc3[nH]cnc3[C@H]2c2cc3c(C(F)(F)F)cccn3n2)o1 [Example 1821, (S)-2-(trifluoromethyl)-5-(4-(4-(trifluoromethyl)pyrazolo[1,5-a]pyridin-2-yl)-6,7-dihydro-1H-imidazo[4,5-c]pyridin-5(4H)-yl)-1,3,4-oxadiazole]
The AC50 of the first is higher: 1000 to 5000 nM for the first, under 500 nM for the second.

same assay, conditions: A375 cells expressing human R408W PAH; 24 hrs compound incubation; 13C-Tyrosine by LC-MS; average where tested multiple times; read-out: AC50

First: Cc1cccn2nc([C@@H]3c4nc[nH]c4CCN3C(=O)c3nnc(-c4ccc(C(F)(F)F)cn4)o3)cc12 [Example 873, (S)-(4-(4-methylpyrazolo[1,5-a]pyridin-2-yl)-6,7-dihydro-1H-imidazo[4,5-c]pyridin-5(4H)-yl)(5-(5-(trifluoromethyl)pyridin-2-yl)-1,3,4-oxadiazol-2-yl)methanone]
Second: O=C(c1nnc(-c2ccccn2)o1)N1CCc2[nH]cnc2[C@H]1c1cc2c(Cl)cccn2n1 [Example 735, (S)-(4-(4-chloropyrazolo[1,5-a]pyridin-2-yl)-6,7-dihydro-1H-imidazo[4,5-c]pyridin-5(4H)-yl)(5-(pyridin-2-yl)-1,3,4-oxadiazol-2-yl)methanone]
The AC50 of the first is higher: 500 to 1000 nM for the first, under 500 nM for the second.

First: Cn1cc(-c2nnc(C(=O)N3CCc4[nH]cnc4[C@@H]3c3cc4c(C(F)F)cccn4n3)o2)cn1 [Example 1317, (R)-(4-(4-(difluoromethyl)pyrazolo[1,5-a]pyridin-2-yl)-6,7-dihydro-1H-imidazo[4,5-c]pyridin-5(4H)-yl)(5-(1-methyl-1H-pyrazol-4-yl)-1,3,4-oxadiazol-2-yl)methanone]
Second: Cc1cc(-c2nnc(C(=O)N3CCc4[nH]cnc4[C@@H]3c3cc4c(C(F)F)cccn4n3)o2)nn1C [Example 1530, (R)-(4-(4-(difluoromethyl)pyrazolo[1,5-a]pyridin-2-yl)-6,7-dihydro-1H-imidazo(4,5-c]pyridin-5(4H)-yl)(5-(1,5-dimethyl-1H-pyrazol-3-yl)-1,3,4-oxadiazol-2-yl)methanone]
The AC50 of the first is lower: 1000 to 5000 nM for the first, over 5000 nM for the second.

First: Cc1cccc2cc([C@@H]3c4nc[nH]c4CCN3c3nnc(-c4ccccn4)o3)nn12 [Example 1640, (S)-2-(4-(7-methylpyrazolo[1,5-a]pyridin-2-yl)-6,7-dihydro-1H-imidazo[4,5-c]pyridin-5(4H)-yl)-5-(pyridin-2-yl)-1,3,4-oxadiazole]
Second: Cc1cccc2cc([C@@H]3c4nc[nH]c4CCN3C(=O)c3nnc(-c4cnccn4)o3)nn12 [Example 1339, (S)-(4-(7-methylpyrazolo[1,5-a]pyridin-2-yl)-6,7-dihydro-1H-imidazo[4,5-c]pyridin-5(4H)-yl)(5-(pyrazin-2-yl)-1,3,4-oxadiazol-2-yl)methanone]
The AC50 of the first is higher: 500 to 1000 nM for the first, under 500 nM for the second.

`Cc1cccn2nc([C@@H]3c4nc[nH]c4CCN3C(=O)c3oc(-c4cncn4C)nc3C(F)F)cc12` [Example 891, (S)-(4-(difluoromethyl)-2-(1-methyl-1H-imidazol-5-yl)oxazol-5-yl)(4-(4-methylpyrazolo[1,5-a]pyridin-2-yl)-6,7-dihydro-1H-imidazo[4,5-c]pyridin-5(4H)-yl)methanone] and `C[C@@H](O)c1nc(C(F)F)c(C(=O)N2CCc3[nH]cnc3[C@H]2c2cc3ccccn3n2)o1` [Example 690, (4-(difluoromethyl)-2-((R)-1-hydroxyethyl)oxazol-5-yl)((S)-4-(pyrazolo[1,5-a]pyridin-2-yl)-6,7-dihydro-1H-imidazo[4,5-c]pyridin-5(4H)-yl)methanone] cannot be ordered by AC50: under 500 nM for the first, under 500 nM for the second.

Compared with `O=C(c1oc(-c2ccccn2)nc1C1CC1)N1CCc2[nH]cnc2[C@@H]1c1cc2ccccn2n1` [Example 623, (R)-(4-cyclopropyl-2-(pyridin-2-yl)oxazol-5-yl)(4-(pyrazolo[1,5-a]pyridin-2-yl)-6,7-dihydro-1H-imidazo[4,5-c]pyridin-5(4H)-yl)methanone], `Cc1c(-c2nnc(C(=O)N3CCc4[nH]cnc4[C@H]3c3cc4ccccn4n3)o2)cnn1C` [Example 972, (S)-(5-(1,5-dimethyl-1H-pyrazol-4-yl)-1,3,4-oxadiazol-2-yl)(4-(pyrazolo[1,5-a]pyridin-2-yl)-6,7-dihydro-1H-imidazo[4,5-c)pyridin-5(4H)-yl)methanone] is lower in AC50: 1000 to 5000 nM for the first, under 500 nM for the second.

First: O=C(c1nnc(C2CC2)o1)N1CCc2[nH]cnc2[C@@H]1c1cc2c(C(F)(F)F)cccn2n1 [Example 943, (R)-(5-cyclopropyl-1,3,4-oxadiazol-2-yl)(4-(4-(trifluoromethyl)pyrazolo[1,5-a]pyridin-2-yl)-6,7-dihydro-1H-imidazo[4,5-c]pyridin-5(4H)-yl)methanone]
Second: O=C(c1nnc(C2CC2)o1)N1CCc2[nH]cnc2[C@@H]1c1cc2cc(F)ccn2n1 [Example 1131, (R)-(5-cyclopropyl-1,3,4-oxadiazol-2-yl)(4-(5-fluoropyrazolo[1,5-a]pyridin-2-yl)-6,7-dihydro-1H-imidazo[4,5-c]pyridin-5(4H)-yl)methanone]
The AC50 of the first is higher: over 5000 nM for the first, 1000 to 5000 nM for the second.

`Cc1c(-c2nnc(C(=O)N3CCc4[nH]cnc4[C@@H]3c3cc4cccc(C)n4n3)o2)cnn1C` [Example 1189, (R)-(5-(1,5-dimethyl-1H-pyrazol-4-yl)-1,3,4-oxadiazol-2-yl)(4-(7-methylpyrazolo[1,5-a]pyridin-2-yl)-6,7-dihydro-1H-imidazo[4,5-c]pyridin-5(4H)-yl)methanone] and `COc1ccc(-c2nnc(C(=O)N3CCc4[nH]cnc4[C@H]3c3cc4cccc(C(F)(F)F)n4n3)o2)cn1` [Example 1344, (S)-(5-(6-methoxypyridin-3-yl)-1,3,4-oxadiazol-2-yl)(4-(7-(trifluoromethyl)pyrazolo[1,5-a]pyridin-2-yl)-6,7-dihydro-1H-imidazo[4,5-c]pyridin-5(4H)-yl)methanone] fall in the same range of AC50: 1000 to 5000 nM for the first, 1000 to 5000 nM for the second.

First: CC(C)(O)c1nc(C(F)F)c(C(=O)N2CCc3[nH]cnc3[C@H]2c2cc3cccc(Cl)n3n2)o1 [Example 960, (S)-(4-(7-chloropyrazolo[1,5-a]pyridin-2-yl)-6,7-dihydro-1H-imidazo[4,5-c]pyridin-5(4H)-yl)(4-(difluoromethyl)-2-(2-hydroxypropan-2-yl)oxazol-5-yl)methanone]
Second: Cc1cccc2cc([C@@H]3c4nc[nH]c4CCN3C(=O)c3ocnc3C(F)(F)F)nn12 [Example 1146, (S)-(4-(7-methylpyrazolo[1,5-a]pyridin-2-yl)-6,7-dihydro-1H-imidazo[4,5-c]pyridin-5(4H)-yl)(4-(trifluoromethyl)oxazol-5-yl)methanone]
The AC50 of the first is higher: 500 to 1000 nM for the first, under 500 nM for the second.

`O=C(c1nnc(-c2cccnc2)o1)N1CCc2[nH]cnc2[C@H]1c1cc2cccc(C(F)F)n2n1` [Example 1468, (S)-(4-(7-(difluoromethyl)pyrazolo[1,5-a]pyridin-2-yl)-6,7-dihydro-1H-imidazo[4,5-c]pyridin-5(4H)-yl)(5-(pyridin-3-yl)-1,3,4-oxadiazol-2-yl)methanone] gave an AC50 of under 500 nM.

From patent US20230365592A1 (Agios Pharmaceuticals, Inc., priority 2022, published 2023)
